According to ChEMBL document CHEMBL1201862, “PubChem BioAssay data set” (2004):
Calls of active or inactive are those of the source.

Experiments:
[1] = target: Peroxisome proliferator-activated receptor gamma/Nuclear receptor coactivator 3 (Homo sapiens, UniProt P37231); assay type: functional;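 further: agonist potency for raising coactivator recruitment to the receptor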
[2] = target: Peroxisome proliferator-activated receptor gamma/Nuclear receptor coactivator 2 (Homo sapiens, UniProt P37231); assay type: functional;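 further: agonist potency for raising coactivator recruitment to the receptor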
[3] = target: Peroxisome proliferator-activated receptor gamma/Nuclear receptor coactivator 1 (Homo sapiens, UniProt P37231); assay type: functional;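 further: agonist potency as compounds enhance coactivator SRC-1 recruitment to PPARgamma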
NADPH oxidase 1 = target: T1, NADPH oxidase 1 (Homo sapiens, UniProt Q9Y5S8); assay type: functional, cell-based;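 further: Cell-based assay with luminescence read-out, IC50 derived from inhibitor dose-response curves; intracellular ROS from endogenous NOX1 in intact HT29 colon cancer cells; potency of inhibitors that lower the ROS luminescence signal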
T1 sequence (Q9Y5S8 whole entry): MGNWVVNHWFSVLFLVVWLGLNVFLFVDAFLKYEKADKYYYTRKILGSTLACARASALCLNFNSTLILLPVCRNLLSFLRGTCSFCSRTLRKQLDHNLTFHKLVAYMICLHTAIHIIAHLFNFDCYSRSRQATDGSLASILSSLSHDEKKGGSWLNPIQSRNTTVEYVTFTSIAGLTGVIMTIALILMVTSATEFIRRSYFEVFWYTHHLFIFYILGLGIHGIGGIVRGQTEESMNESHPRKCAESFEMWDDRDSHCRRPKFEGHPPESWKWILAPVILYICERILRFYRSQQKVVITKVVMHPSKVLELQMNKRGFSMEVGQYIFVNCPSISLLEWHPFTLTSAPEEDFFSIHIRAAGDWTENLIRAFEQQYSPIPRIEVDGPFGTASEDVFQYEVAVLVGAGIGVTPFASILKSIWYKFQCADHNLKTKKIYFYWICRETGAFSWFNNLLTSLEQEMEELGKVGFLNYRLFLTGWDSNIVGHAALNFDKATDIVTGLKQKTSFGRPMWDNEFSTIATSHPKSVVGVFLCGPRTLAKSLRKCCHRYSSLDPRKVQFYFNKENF

Leucine aminopeptidase = target: T2, Leucine aminopeptidase (Plasmodium falciparum 3D7, UniProt Q8IL11); assay: P. falciparum M17LAP inhibitors, primary screen, biochemical, fluorogenic H-Leu-NHMec substrate, 1536-well (AID 1619); assay type: functional
T2 sequence (Q8IL11 whole entry): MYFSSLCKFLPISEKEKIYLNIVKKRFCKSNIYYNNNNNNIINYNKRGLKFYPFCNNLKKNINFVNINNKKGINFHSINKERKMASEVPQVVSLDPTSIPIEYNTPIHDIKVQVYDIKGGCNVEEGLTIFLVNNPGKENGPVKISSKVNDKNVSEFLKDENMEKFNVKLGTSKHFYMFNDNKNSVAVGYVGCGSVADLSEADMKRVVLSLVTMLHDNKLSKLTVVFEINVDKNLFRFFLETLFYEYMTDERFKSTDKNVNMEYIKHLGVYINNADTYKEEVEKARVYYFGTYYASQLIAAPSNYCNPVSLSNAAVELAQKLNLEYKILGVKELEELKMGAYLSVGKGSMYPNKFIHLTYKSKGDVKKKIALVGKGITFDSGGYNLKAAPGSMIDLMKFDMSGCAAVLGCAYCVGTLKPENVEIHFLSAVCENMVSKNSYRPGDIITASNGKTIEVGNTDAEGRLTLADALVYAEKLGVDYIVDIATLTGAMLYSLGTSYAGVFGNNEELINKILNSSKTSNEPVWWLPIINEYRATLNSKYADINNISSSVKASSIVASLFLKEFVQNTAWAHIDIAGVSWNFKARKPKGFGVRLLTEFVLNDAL

[4] = target: T3, Replicative DNA helicase DnaB (Mycobacterium tuberculosis, UniProt P9WMR3); assay: DnaB intein splicing inhibitors, dose response, biochemical, cell-free fluorescence (AID 449749); assay type: functional
T3 sequence (P9WMR3 whole entry): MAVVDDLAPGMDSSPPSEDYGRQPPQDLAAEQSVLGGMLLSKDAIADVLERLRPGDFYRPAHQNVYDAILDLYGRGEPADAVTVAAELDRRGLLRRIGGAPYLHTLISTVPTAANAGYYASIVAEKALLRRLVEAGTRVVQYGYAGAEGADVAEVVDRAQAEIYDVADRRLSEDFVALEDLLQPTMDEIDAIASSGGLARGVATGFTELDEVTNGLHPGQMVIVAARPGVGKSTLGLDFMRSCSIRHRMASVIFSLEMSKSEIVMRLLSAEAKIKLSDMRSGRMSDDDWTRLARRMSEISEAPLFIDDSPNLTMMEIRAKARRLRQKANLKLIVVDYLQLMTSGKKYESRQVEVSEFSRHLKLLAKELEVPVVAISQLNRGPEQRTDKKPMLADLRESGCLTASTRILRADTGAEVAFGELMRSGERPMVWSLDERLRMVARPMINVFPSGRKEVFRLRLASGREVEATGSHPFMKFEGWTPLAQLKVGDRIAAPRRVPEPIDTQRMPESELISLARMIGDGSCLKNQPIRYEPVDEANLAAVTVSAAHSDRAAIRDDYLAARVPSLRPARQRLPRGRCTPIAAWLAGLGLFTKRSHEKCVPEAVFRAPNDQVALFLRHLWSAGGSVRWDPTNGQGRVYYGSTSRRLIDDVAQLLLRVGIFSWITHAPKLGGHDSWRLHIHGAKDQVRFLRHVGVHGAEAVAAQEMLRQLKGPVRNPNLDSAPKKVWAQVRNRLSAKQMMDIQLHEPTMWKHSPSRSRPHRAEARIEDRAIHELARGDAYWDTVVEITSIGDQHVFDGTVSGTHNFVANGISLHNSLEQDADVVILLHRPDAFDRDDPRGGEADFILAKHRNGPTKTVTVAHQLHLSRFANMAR

Protein RecA = target: T4, Protein RecA (Mycobacterium tuberculosis, UniProt P9WHJ3); assay: Fluorescence Cell-Free Homogeneous Dose Retest to Identify Inhibitors of RecA-Intein Splicing Activity. [Related pubchem assays (depositor defined):AID2097, AID2223, AID489010, AID492950]; assay type: functional
T4 sequence (P9WHJ3 whole entry): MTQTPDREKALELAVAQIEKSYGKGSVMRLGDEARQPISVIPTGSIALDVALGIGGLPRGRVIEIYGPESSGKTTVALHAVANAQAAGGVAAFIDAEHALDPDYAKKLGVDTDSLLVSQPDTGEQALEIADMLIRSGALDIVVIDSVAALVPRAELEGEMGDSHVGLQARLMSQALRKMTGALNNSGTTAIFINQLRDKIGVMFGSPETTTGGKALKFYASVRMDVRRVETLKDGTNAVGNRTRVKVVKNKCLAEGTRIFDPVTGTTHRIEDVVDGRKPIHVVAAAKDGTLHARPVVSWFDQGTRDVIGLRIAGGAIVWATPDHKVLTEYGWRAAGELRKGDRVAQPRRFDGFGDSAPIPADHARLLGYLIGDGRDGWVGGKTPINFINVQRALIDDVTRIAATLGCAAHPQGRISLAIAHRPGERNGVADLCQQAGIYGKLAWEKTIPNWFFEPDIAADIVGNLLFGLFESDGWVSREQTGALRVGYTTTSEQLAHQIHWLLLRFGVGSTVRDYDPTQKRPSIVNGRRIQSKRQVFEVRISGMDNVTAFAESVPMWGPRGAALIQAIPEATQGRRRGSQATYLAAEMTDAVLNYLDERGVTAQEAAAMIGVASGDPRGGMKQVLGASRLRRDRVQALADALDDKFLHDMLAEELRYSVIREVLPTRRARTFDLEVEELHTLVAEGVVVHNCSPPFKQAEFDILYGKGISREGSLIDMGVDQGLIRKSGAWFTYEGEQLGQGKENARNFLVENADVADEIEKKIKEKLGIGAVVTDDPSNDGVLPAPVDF

Kallikrein-7 = Kallikrein-7 (Homo sapiens, UniProt P49862); assay: Fluorescence Intensity-based biochemical primary high throughput dose response assay to identify activators of kallikrein-7 (K7) zymogen.
Cytochrome P450 2C19 = Cytochrome P450 2C19 (Homo sapiens, UniProt P33261); assay: Cytochrome panel assay with activity outcomes. Panel member name: p450-cyp2c19 Compounds with AC50 equal or less than 10 uM are considered active; assay type: functional; settings: read-out: AC50
[5] = Luminescence Cell-Based Dose Response to Identify Activators of Luciferase Translation or Activity in H4-C Neuroglioblastoma Cells. [Related pubchem assays: 1829 (Project Summary), 1814 (Primary HTS)]; assay type: functional
[6] = Luminescence Cell-Based Dose Confirmation to Identify Activators of 5'UTR Stem-Loop Driven Alpha-Synuclein mRNA Translation in H4 Neuroglioblastoma Cells. [Related pubchem assays: 1829 (Project Summary), 1814 (Primary HTS)]; assay type: functional
[7] = Luminescence Cell-Based Dose Confirmation HTS to Identify Activators of 5'UTR Stem-Loop Driven Alpha-Synuclein mRNA Translation in H4 Neuroglioblastoma Cells. [Related pubchem assays: 1829 (Project Summary), 1814 (Primary HTS)]; assay type: functional
[8] = Luminescence Cell-Based Dose Response HTS to Identify Activators of Luciferase Translation or Activity in H4 […] Cells. [Related pubchem assays: 1829 (Project Summary), 1814 (Primary HTS)]; assay type: functional
H4 = assay: Luminescence Cell-Based Dose Response HTS to Identify Activators of 5'UTR Stem-Loop Driven Prion Protein mRNA Translation in H4 Neuroglioblastoma Cells. [Related pubchem assays: 1829 (Project Summary), 1814 (Primary HTS)]; assay type: functional; settings: Homo sapiens
[9] = Luminescence Cell-Based Dose Response to Identify Activators of 5'UTR Stem-Loop Driven Prion Protein mRNA Translation in H4-C Neuroglioblastoma Cells. [Related pubchem assays: 1829 (Project Summary), 1814 (Primary HTS)]; assay type: functional
[10] = inhibitors of Vif binding to APOBEC3G peptide, primary screen, biochemical, TR-FRET, GST-Vif 1-94, biotin-A3G peptide, dose response retest (AID 1117319); assay type: functional;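 further: TR-FRET signal of purified GST-Vif binding a biotinylated A3G peptide; inhibitors lower the FRET signal by blocking Vif and A3G binding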
[11] = inhibitors of SNCA 5'UTR-driven reporter translation, confirmation, H4 neuroglioma cells, luminescence (AID 1988); assay type: functional, cell-based
[12] = inhibitors of firefly luciferase expression or activity, dose response, H4 neuroglioma cells, luminescence (AID 1990); assay type: functional, cell-based
[13] = Luminescence Cell-Based Dose Response HTS to Identify Inhibitors of 5'UTR Stem-Loop Driven Prion Protein mRNA Translation in H4 Neuroglioblastoma Cells. [Related pubchem assays: 1827 (Project Summary), 1813 (Primary HTS)]; assay type: functional
[14] = Jurkat T cell cytotoxicity, dose response, cytotoxicity control for P. falciparum gametocyte viability project, luminescence (AID 1117277); assay type: functional, cell-based;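 further: potency reflects loss of cellular ATP meaning fewer viable cells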
[15] = P. falciparum late gametocyte killing, dose response, luminescence (AID 1117278); assay type: functional, cell-based;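 further: gametocytes exposed to compound for 24 hours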
[16] = HEp-2 cell cytotoxicity, dose response, cytotoxicity control for RSV inhibitor project, HTS (AID 2410); assay type: functional; settings: human respiratory syncytial virus
[17] = P. falciparum Dd2 growth inhibitors, dose response, SYBR Green, dry powder samples (AID 1159566); assay type: functional, cell-based;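 further: potency for growth inhibition with lower SYBR green DNA signal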
[18] = P. falciparum 3D7-ScDHODH growth inhibitors, dose response, SYBR Green, dry powder samples (AID 1159570); assay type: functional, cell-based;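 further: parasite growth measured after 72 hours of compound exposure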
[19] = P. falciparum ATP4 D1247Y mutant growth inhibitors, dose response, NITD609-resistant line, SYBR Green, dry powder (AID 1159571); assay type: functional, cell-based;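 further: parasites synchronized at ring stage by sorbitol before testing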
[20] = P. falciparum Dd2 growth inhibitors, dose response, SYBR Green, cherry-picked samples (AID 1159567); assay type: functional, cell-based

Peroxisome proliferator-activated receptor gamma/Nuclear receptor coactivator 1, sequence (P37231 whole entry): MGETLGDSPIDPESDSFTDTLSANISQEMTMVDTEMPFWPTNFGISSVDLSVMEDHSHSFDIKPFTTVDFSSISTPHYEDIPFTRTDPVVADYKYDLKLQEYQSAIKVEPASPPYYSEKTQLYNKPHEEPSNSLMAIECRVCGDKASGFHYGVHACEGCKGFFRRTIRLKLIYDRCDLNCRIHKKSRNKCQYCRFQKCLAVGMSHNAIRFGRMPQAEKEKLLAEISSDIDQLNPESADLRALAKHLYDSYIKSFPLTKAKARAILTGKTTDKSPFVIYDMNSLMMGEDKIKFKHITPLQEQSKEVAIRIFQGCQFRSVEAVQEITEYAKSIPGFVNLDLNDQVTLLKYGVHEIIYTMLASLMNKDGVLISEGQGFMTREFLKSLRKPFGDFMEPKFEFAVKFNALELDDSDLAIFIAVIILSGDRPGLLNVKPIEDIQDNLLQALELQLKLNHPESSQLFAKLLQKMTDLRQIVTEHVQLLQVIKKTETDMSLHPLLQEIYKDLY
Peroxisome proliferator-activated receptor gamma/Nuclear receptor coactivator 1, sequence (Q15788 whole entry, further chain): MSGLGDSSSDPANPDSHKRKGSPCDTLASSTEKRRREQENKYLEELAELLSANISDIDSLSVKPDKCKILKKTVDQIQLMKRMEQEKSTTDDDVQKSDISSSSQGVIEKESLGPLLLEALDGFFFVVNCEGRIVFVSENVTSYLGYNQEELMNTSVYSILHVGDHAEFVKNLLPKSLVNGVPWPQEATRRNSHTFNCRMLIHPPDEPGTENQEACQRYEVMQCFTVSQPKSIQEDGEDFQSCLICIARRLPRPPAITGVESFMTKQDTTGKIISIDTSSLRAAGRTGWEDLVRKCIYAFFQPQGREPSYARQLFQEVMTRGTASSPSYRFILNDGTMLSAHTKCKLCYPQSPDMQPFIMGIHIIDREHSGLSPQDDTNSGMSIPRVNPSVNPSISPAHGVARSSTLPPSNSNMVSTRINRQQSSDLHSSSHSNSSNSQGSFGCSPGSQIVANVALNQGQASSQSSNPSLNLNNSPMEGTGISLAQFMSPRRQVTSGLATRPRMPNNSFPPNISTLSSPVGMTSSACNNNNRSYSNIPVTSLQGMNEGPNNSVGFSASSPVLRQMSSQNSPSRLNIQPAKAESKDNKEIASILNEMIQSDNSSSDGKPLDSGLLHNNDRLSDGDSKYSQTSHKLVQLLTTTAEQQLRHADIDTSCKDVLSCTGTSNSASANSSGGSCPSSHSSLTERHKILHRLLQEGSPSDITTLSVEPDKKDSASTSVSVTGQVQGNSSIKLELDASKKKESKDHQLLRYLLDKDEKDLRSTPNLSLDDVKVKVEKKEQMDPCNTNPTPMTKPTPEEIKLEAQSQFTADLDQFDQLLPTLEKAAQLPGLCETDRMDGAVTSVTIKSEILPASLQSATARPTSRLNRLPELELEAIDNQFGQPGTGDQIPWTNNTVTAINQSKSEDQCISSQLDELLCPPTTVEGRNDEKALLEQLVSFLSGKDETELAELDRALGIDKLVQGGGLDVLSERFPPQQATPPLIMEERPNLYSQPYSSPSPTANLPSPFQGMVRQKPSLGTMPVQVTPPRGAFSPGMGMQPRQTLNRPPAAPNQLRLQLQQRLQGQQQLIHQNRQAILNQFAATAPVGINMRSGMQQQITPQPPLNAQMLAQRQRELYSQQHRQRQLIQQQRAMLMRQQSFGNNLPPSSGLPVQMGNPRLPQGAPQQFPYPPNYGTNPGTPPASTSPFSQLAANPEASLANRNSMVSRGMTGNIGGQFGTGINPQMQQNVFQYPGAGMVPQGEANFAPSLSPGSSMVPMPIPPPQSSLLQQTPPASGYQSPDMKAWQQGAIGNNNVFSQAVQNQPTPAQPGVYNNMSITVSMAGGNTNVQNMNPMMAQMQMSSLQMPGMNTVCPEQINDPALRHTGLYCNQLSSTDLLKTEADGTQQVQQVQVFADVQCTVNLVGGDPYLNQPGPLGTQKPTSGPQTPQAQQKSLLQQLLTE
Peroxisome proliferator-activated receptor gamma/Nuclear receptor coactivator 3, sequence (P37231 whole entry): as the sequence (P37231 whole entry) above
Peroxisome proliferator-activated receptor gamma/Nuclear receptor coactivator 3, sequence (Q9Y6Q9 whole entry, further chain): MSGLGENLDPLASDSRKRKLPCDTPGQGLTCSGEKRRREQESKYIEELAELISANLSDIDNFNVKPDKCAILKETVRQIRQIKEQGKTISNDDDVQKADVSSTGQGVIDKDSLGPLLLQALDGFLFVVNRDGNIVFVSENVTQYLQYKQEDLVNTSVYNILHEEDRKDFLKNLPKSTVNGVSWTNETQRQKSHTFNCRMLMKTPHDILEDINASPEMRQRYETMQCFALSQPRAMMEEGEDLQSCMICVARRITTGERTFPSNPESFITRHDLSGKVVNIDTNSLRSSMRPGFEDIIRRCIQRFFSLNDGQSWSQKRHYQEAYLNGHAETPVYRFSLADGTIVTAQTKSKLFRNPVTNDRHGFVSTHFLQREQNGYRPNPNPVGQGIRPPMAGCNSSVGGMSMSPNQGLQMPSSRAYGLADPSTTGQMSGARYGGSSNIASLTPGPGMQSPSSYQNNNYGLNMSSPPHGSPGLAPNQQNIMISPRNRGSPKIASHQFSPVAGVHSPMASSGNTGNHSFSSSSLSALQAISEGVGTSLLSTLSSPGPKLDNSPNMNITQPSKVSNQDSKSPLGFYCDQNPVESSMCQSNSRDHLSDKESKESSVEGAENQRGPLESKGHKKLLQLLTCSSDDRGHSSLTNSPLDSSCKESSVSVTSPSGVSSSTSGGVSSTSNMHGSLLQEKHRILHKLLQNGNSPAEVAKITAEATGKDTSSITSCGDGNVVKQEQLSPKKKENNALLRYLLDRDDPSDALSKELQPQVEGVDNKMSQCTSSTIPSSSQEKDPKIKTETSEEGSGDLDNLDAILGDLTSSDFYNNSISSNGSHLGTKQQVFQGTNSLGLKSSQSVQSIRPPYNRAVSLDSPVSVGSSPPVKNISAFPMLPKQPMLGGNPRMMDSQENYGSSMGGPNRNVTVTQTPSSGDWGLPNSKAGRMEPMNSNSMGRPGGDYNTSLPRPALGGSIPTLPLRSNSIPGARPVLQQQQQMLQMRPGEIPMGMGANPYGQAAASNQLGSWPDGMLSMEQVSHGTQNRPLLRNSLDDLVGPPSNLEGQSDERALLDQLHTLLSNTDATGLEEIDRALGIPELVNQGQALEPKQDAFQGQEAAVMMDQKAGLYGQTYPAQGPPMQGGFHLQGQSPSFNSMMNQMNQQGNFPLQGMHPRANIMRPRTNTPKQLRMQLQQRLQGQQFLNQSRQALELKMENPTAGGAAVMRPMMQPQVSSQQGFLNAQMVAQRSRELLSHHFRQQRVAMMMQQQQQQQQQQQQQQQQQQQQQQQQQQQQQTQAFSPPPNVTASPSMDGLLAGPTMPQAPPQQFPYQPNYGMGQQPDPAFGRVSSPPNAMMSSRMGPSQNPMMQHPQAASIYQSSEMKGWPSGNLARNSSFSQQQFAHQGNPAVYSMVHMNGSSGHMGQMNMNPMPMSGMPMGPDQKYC
Kallikrein-7, sequence (P49862 whole entry): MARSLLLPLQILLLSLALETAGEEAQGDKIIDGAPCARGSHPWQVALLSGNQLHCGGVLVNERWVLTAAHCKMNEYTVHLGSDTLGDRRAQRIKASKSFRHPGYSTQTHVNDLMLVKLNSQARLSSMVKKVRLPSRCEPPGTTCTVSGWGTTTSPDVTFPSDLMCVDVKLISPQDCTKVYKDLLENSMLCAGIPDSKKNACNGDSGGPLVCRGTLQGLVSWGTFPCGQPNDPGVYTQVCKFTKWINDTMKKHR
Cytochrome P450 2C19, sequence (P33261 whole entry): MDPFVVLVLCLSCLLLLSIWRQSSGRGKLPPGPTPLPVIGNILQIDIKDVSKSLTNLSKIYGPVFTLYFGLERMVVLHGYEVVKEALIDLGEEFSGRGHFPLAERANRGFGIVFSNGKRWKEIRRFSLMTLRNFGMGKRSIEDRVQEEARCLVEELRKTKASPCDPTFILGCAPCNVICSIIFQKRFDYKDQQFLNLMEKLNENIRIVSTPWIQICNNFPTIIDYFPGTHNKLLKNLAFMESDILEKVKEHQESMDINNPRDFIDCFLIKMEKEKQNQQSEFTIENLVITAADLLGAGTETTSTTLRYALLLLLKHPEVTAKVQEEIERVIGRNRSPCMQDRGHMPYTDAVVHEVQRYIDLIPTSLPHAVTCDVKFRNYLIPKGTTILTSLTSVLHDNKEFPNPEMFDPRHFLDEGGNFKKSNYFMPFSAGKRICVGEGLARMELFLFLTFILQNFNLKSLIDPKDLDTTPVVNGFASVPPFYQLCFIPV

Compound: CCOC(=O)c1c(NC(=O)C(C)Sc2cn(C)c3ccccc23)sc2c1CCC2 (stereo unspecified)
- EC50 [1]: 32.3 µM (not active)
- EC50 [2]: 29.5 µM (not active)
- EC50 [3]: 29.2 µM (not active)

Compound: O=C(Oc1cccc(-n2cnnn2)c1)c1sc2ccccc2c1Cl
- IC50 (NADPH oxidase 1): > 17 µM (not active)

Compound: N#C/C(=C/c1cn(CC(=O)O)c2ccccc12)c1ccc(F)cc1
- IC50 (Leucine aminopeptidase): 21.2 µM (active)

Compound: Cc1cc(C)cc(Oc2coc3cc(OC(=O)c4cccs4)ccc3c2=O)c1
- AC50 [4]: 21.2 µM (active)
- EC50 (Protein RecA): 18.8 µM (active)
- EC50 (Kallikrein-7): 66.8 µM (inactive)
- AC50 (Cytochrome P450 2C19): 2.82 µM (inconclusive)

Compound: COc1ccc(-c2csc(N3CCSCC3)n2)cc1
- EC50 [5]: 0.375 µM (active)
- EC50 [6]: 0.579 µM (active)
- EC50 [7]: 1.64 µM (active)
- EC50 [8]: 3.17 µM (active)
- EC50 (H4): 0.112 µM (active)
- EC50 [9]: 0.887 µM (active)

Compound: NNC(=O)c1cnn(-c2ccccc2)c1-n1cccc1
- EC50 [1]: > 79.4 µM (not active)
- EC50 [2]: > 79.4 µM (not active)
- EC50 [3]: > 79.4 µM (not active)

Compound: COc1ccc(OC(=O)c2sc3ccccc3c2Cl)cc1
- IC50 (NADPH oxidase 1): > 17 µM (not active)

Compound: COc1ccccc1C1C=C(c2ccc(C)cc2)Nc2nnnn21 (stereo unspecified)
- EC50 (Kallikrein-7): 23.5 µM (inactive)
- IC50 [10]: > 100 µM (active)

Compound: COc1cccc(N2CCN(S(=O)(=O)c3ccc4[nH]c(-c5ccccc5)nc4c3)CC2)c1
- EC50 [11]: > 120 µM (not active)
- EC50 [12]: 29.8 µM (active)
- EC50 [13]: > 120 µM (not active)
- IC50 [14]: > 83.3 µM (inactive)
- IC50 [15]: > 109 µM (inactive)

Compound: O=C(Nc1nc2ccc([N+](=O)[O-])cc2s1)c1ccco1
- IC50 [14]: > 83.2 µM (inactive)
- IC50 [15]: > 109 µM (inactive)

Compound: CCSc1n[nH]c2nc3nc4c(C)cccc4c-3nn12
- IC50 [14]: > 83.3 µM (inactive)
- IC50 [15]: > 109 µM (inactive)

Compound: Cc1cc(/C=C2/C(=O)N(C)C(=S)N2C)c(C)n1C1CC1
- EC50 [5]: 0.337 µM (active)
- EC50 [6]: 0.343 µM (active)
- EC50 [1]: > 79.4 µM (not active)
- EC50 [2]: > 79.4 µM (not active)
- CC50 [16]: 40.7 µM (active)
- EC50 [8]: < 0.1 µM (inconclusive)
- EC50 (H4): > 120 µM (not active)
- EC50 [9]: 0.297 µM (active)
- EC50 [3]: > 79.4 µM (not active)

Compound: CCOC(=O)N1CCN(C(=O)C2CCCN(S(=O)(=O)c3ccc(C)cc3)C2)CC1 (stereo unspecified)
- IC50 [10]: > 100 µM (active)

Compound: O=C(O)c1ccc(/C=N/Nc2ccc(F)cc2F)cc1
- IC50 (Leucine aminopeptidase): 99.4 µM (active)

Compound: C[C@@H]1CN([C@H](C)CO)C(=O)c2cc(C#CCc3ccccc3)cnc2O[C@H]1CN(C)C(=O)C1CCC1
- AC50 [17]: 1.88 µM (active)
- AC50 [18]: 2.1 µM (active)
- AC50 [19]: 1.54 µM (active)
- AC50 [20]: 2.18 µM (active)

Compound: Cc1ccccc1-c1nc(-c2ccccc2)c(-c2ccccc2)[nH]1
- IC50 (NADPH oxidase 1): > 17 µM (not active)
